Like-named read-outs stand apart in the source and are kept apart here.
Columns and labels:
[1] = target: T1, His tagged PTPN2 (TC45) protein (Homo sapiens, UniProt P17706); experiment: Mobility shift assay (MSA) for potency of PTPN2 inhibitors; type: biochemical
T1 construct: made in house
T1 sequence (P17706 with tags, fused parts or gaps isoform P17706-2): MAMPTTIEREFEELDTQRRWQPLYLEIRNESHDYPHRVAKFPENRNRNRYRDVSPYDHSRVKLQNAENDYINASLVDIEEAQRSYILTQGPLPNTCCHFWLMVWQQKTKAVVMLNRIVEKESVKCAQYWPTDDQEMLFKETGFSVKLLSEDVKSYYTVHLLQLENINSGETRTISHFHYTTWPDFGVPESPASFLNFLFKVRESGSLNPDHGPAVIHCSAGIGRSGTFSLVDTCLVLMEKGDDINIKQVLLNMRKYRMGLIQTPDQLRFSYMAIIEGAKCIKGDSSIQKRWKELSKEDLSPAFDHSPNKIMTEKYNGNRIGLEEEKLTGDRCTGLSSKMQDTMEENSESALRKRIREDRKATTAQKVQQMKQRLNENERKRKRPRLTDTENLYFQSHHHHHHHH
Summary of the method: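 IC50 values were derived from % inhibition of substrate conversion, measured by microfluidic mobility shift (ex 488/em 530) after quenching. The fluorescent phosphotyrosine insulin-receptor peptide ([…]) reacted for 10 min at room temperature with 0.5 nM His-tagged TC45 PTPN2 that had been preincubated 10 min with compound (12 points, 1:3). Buffer was HEPES pH 7.5 with EGTA, EDTA, Tween 20 and DTT.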

[2] = tested on: Pan T cells isolated from C57BL6 splenocytes; experiment: T cell activation assay (flow cytometry, CD25/CD69 on CD8 T cells); type: cell-based, mouse; conditions: for % CD25 within CD8+ / % CD69 within CD8+ / CD25 MFI / CD69 MFI: 30 μM compound, 2 days; for T cell activation and T cell function: with TCR stimulation
Experimental: Pan T cells were isolated from C57BL6 splenocytes using a MACS Pan T cell isolation kit II (Miltenyi Biotec, Auburn, Calif.) according to the manufacturer's instructions. Isolated T cells (200,000 cells/well in a 96 well flat-bottom plate) were cultured in RPMI 1640 supplemented with 10% FBS, […] 2-mercatoethanol, 100 U/mL penicillin, and 100 μg/mL streptomycin, and incubated with the indicated concentration of compound or DMSO in duplicates. After 1 hour, mouse T cell activator CD3/CD28 Dynabeads (ThermoFisher Scientific, Waltham, Mass.) were added at a 1:5 beads to cells ratio to stimulate the T cells for 2 or 3 days as outlined below. T cells with or without compound were incubated in the absence of T cell activator beads (media only) as control.
After 2 days of stimulation, activation status of T cells was assessed by flow cytometry. T cells were first subjected to Zombie Violet™ Fixable Viability dye (BioLegend, San Diego, Calif.) for dead cell exclusion, washed and then stained with BUV805 labeled anti-CD8, APC-R700 labeled anti-CD25 (both from BD Biosciences, San Jose, Calif.) and PE labeled anti-CD69 (BioLegend, San Diego, Calif.) antibodies. After staining, cells were fixed with 2% paraformaldehyde and acquired on a BD LSRFortessa™ X-20 flow cytometer (BD Biosciences, San Jose, Calif.) using BD FACSDiva™ software. Data was analyzed using FlowJo V10 (Flow Jo LLC, Ashland, Oreg.). Dead cells were excluded and frequencies of activated CD8 T cells was reported as the frequency of CD25+ or CD69+ cells within the CD8+ population. The expression level of CD25 and CD69 indicates the activation status of cells on a per cell basis and was evaluated by the mean fluorescence intensities (MFI) of CD25 and CD69.

pSTAT5 in CD3+ T cells = experiment: pSTAT5 flow cytometry assay in mouse whole blood; type: in vivo; conditions: 300 mg/kg/dose oral BID; day 8 of dosing, 2 hours post 16th dose; 100 ng/mL murine IL-2
Experimental: Whole blood was drawn into EDTA powder coated tubes by cardiac puncture from mice on day 8 of dosing with indicated PTPN2/1B inhibitor (2 hours after the 16th dose). 100 μL of whole blood were stimulated with 100 ng/mL murine IL-2 (R&D Systems, Minneapolis, Minn., cat #402-ML) for 20 minutes at 37° C., 5% CO2. After stimulation, 1.8 mL of prewarmed BD Phosflow Lyse/Fix Buffer (BD Biosciences, San Jose, Calif.) was added for 20 minutes at 37° C. Cells were washed twice in FACS buffer (Dulbecco's PBS with 0.2% BSA) and incubated for 30 minutes on ice in cold Perm Buffer III (BD Biosciences, San Jose, Calif.). Cells were washed with FACS buffer and resuspended in […] of FACS buffer with antibodies and stained for 3 hours at room temperature with gentle shaking. […] After staining, cells were washed twice with FACS buffer, and the samples were acquired on a BD LSRFortessa™ X20 flow cytometers (BD Biosciences, San Jose, Calif.) and analyzed with FLowJo V10 software (FlowJo, Ashland, Oreg.). The mean fluorescence intensity (MFI) of pSTAT5 as a measure of the amount of phosphorylated STAT5 in the CD3+ T cell population was reported as fold-change of compound treated over vehicle treated animal groups.

[3] = anti-CD3/anti-CD28 Dynabeads (1:5 beads:cells)

SMILES	IC50 ([1]; read-out: PTPN2 MSA IC50)	% CD25 within CD8+ [2, 3]	% CD69 within CD8+ [2, 3]	CD25 MFI [2, 3]	CD69 MFI [2, 3]	% CD25 within CD8+ ([2]; no TCR stimulation)	% CD69 within CD8+ ([2]; no TCR stimulation)	CD25 MFI ([2]; no TCR stimulation)	CD69 MFI ([2]; no TCR stimulation)	T cell activation and T cell function [2]	IC50 ([1]; Table 4, read-out: PTPN2 MSA IC50)	IC50 ([1]; read-out: PTPN2 IC50)	pSTAT5 level in CD3+ T cells from IL2 stimulated whole blood [fold increase over vehicle] (pSTAT5 in CD3+ T cells)
CC(C)(O)CCOc1ccc2cc(O)c(N3CC(=O)NS3(=O)=O)c(F)c2c1 [Compound 182, 5-[1-fluoro-3-hydroxy-7-(3-hydroxy-3-methylbutoxy)naphthalen-2-yl]-1λ^6,2,5-thiadiazolidine-1,1,3-trione]	< 1 nM	29.20%	61.90%	741	1601.5	1.17%	0.45%	72.4	18.3	increased both T cell activation and T cell function			
COc1ccc2cc(O)c(N3CC(=O)NS3(=O)=O)c(F)c2c1 [Compound 124, 5-(1-fluoro-3-hydroxy-7-methoxynaphthalen-2-yl)-1λ^6,2,5-thiadiazolidine-1,1,3-trione]	1 to 10 nM	32.55%	61.90%	846.5	1421.5	0.39%	0.23%	57.05	28.1	increased both T cell activation and T cell function	1 to 10 nM	4.4 nM	2.3 fold
